Measurements as given in US11707467B2, “(17-ß)-3-oxoandrost-4-en-17YL tridecanoate compositions and methods of their preparation and use” (Lipocine Inc., priority 2014, dated 2023).

How the values were obtained:
[1] = Pharmacokinetic study: % responders by serum testosterone Cavg and Cmax; assay type: in vivo, human
Description: Some of the dosage forms of compositions described herein comprising or prepared from substantially pure (17-β)-3-Oxoandrost-4-en-17-yl tridecanoate were administered to human subjects as a single dose of the esters to subjects. Serial blood samples were drawn at predetermined time (e.g., t=0, 12, 24, etc.) and analyzed for testosterone concentration using a validated HPLC-MS/MS analytical method. The Cmax, Cavg t1-t2, Tmax and AUCt1-t2 are calculated for testosterone in the serum of the subjects. Pharmacokinetic and statistical analyses are performed on the data obtained from the subjects. The pharmacokinetic parameters are defined as follows: • AUCt1-t2: The area under the serum concentration versus time curve, from time t1 (in hours) to time t2 (in hours) measurable concentration of the administered drug, as calculated by the linear trapezoidal method. […] This represents the average serum testosterone level over a period starting from time 0 (zero) hours to […] post-administration of dose. It should also be noted that Cavg t0-t24 is also referred to as simply “Cavg” in this invention. • Cavg t0-t12: The average serum concentration of testosterone obtained by dividing the […] value by 12. This represents the average serum testosterone level over a period starting from time 0 (zero) hours to […] post-administration of dose. • Cavg t12-t24: The average serum concentration of testosterone obtained by dividing the AUCt12-t24 value by 12. This represents the average serum testosterone level over the second half of the 24-hours post-administration of dose period; i.e., from a period starting from time 12 hours to time 24 hours post-administration of dose.

[2] = system: developing oocytes in female mice; conditions: cited from earlier work
male and female mice = conditions: cited from earlier work
[3] = starting 100 (±50) mg T equivalent QD or BID, same formulation
[4] = starting 300 (±50) mg T equivalent QD, 12-20% API, 55-70% lipophilic additive, 12-20% hydrophilic additive
[5] = starting 350 (±100) mg T equivalent BID, same formulation
[6] = starting 1000 (±200) mg T equivalent QD or BID, same formulation

CCCCCCCCCCCCC(=O)O[C@H]1CC[C@H]2[C@@H]3CCC4=CC(=O)CC[C@]4(C)[C@H]3CC[C@]12C [(17-β)-3-Oxoandrost-4-en-17-yl tridecanoate]
% Responders with Cave t0-t24 (ng/dL) 300-1140 [1, 3]: 50-65% | % Responders with Cmax (ng/dL) 1800-2500 [1, 3]: 0-5% | % Responders with Cmax (ng/dL) >2500 [1, 3]: 0-1% | % Responders with Cmax (ng/dL) ≤1500 [1, 3]: 100% | % Responders with Cave t0-t24 (ng/dL) 300-1140 [1, 4]: 100% | % Responders with Cmax (ng/dL) 1800-2500 [1, 4]: 0-5% | % Responders with Cmax (ng/dL) >2500 [1, 4]: 0-1% | % Responders with Cmax (ng/dL) ≤1500 [1, 4]: 100% | % Responders with Cave t0-t24 (ng/dL) 300-1140 [1, 5]: 100% | % Responders with Cmax (ng/dL) 1800-2500 [1, 5]: 0-5% | % Responders with Cmax (ng/dL) >2500 [1, 5]: 0-1% | % Responders with Cmax (ng/dL) ≤1500 [1, 5]: 100% | % Responders with Cave t0-t24 (ng/dL) 300-1140 [1, 6]: 100% | % Responders with Cmax (ng/dL) 1800-2500 [1, 6]: 20-30% | % Responders with Cmax (ng/dL) >2500 [1, 6]: 60-80% | % Responders with Cmax (ng/dL) ≤1500 [1, 6]: 0%

C[C@]12CCC(=O)C=C1CC[C@@H]1[C@@H]2CC[C@]2(C)C(=O)CC[C@@H]12 [androstenedione]
Effect on developing oocytes [2]: induces abnormalities in morphology and function of developing oocytes | Carcinogenicity (male and female mice): carcinogenic
